Measurements as given in patent publication US20160317632A1, “USE OF CBP/EP300 BROMODOMAIN INHIBITORS FOR CANCER IMMUNOTHERAPY” (GENENTECH, INC., priority 2013, published 2016).

What was measured:
Assay type in all cases: cell-based, human
iTreg cells [1] = assay: Foxp3 expression in iTreg differentiating cells by q-RT-PCR (FIG. 7)
Protocol: (§1) Naïve CD4+CD45RA+ T cells were isolated from healthy human PBMCs using Miltenyi Biotec naïve human T cell isolation kit (cat#130-094-131). Isolated cells were cultured at 10e6 cells/ml under iTreg-differentiation conditions using Dynabeads (Invitrogen; cat#11132D) at 1:1 ratio of beads to cells+human recombinant IL-2 (10 ng/ml) (R&D, cat#202-IL-010)+human recombinant TGFb (10 ng/ml) (Invitrogen; cat# PHG9204). After 16 hours the CBP inhibitors CBP/EP300(3) and CBP/EP300(4) were added using DMSO as control. CD8+ T cells were isolated from healthy human PBMCs using Militenyi Biotec human CD8 T cell isolation kit (cat#130-095-236) and cultured at 10e6 cells/ml with human T activator Dynabeads at 1:1 ratio of cells to cells with the addition of 10 ng/ml of recombinant human IL-2. 3 days after CD8+ T cell stimulation supernatants were collected and analyzed for CD8+ T cell associated effector function cytokines IFNg and TNFα by Luminex. […]
3 days after CD8+ T cell stimulation mRNA was extracted using mRNA Catcher™ PLUS Purification Kit (Invitrogen; K1570-02). Gene expression of Lag3, CTLA4 and TIM3, genes encoding inhibitory receptors on the surface of CD8+ T cells and under the transcriptional control of CBP/p300, was analyzed by q-RT-PCR. Foxp3 expression and Granzyme B (GZMB) expression, a gene encoding effector function of CD8+ T cells, were also analyzed by q-RT-PCR. […]

CD8+ T cells [2] = assay: gene expression in stimulated CD8+ T cells by q-RT-PCR (FIGS. 9-10); conditions: for expression of LAG3, TIM3 and CTLA4: FIG. 9; for GZMB expression (effector function of CD8+ T cells): FIG. 10
Protocol: (§2) Naïve CD4+CD45RA+ T cells were isolated from healthy human PBMCs using Miltenyi Biotec naïve human T cell isolation kit (cat#130-094-131). Isolated cells were cultured at 10e6 cells/ml under iTreg-differentiation conditions using Dynabeads (Invitrogen; cat#11132D) at 1:1 ratio of beads to cells+human recombinant IL-2 (10 ng/ml) (R&D, cat#202-IL-010)+human recombinant TGFb (10 ng/ml) (Invitrogen; cat# PHG9204). After 16 hours the CBP inhibitors CBP/EP300(3) and CBP/EP300(4) were added using DMSO as control. CD8+ T cells were isolated from healthy human PBMCs using Militenyi Biotec human CD8 T cell isolation kit (cat#130-095-236) and cultured at 10e6 cells/ml with human T activator Dynabeads at 1:1 ratio of cells to cells with the addition of 10 ng/ml of recombinant human IL-2. 3 days after CD8+ T cell stimulation supernatants were collected and analyzed for CD8+ T cell associated effector function cytokines IFNg and TNFα by Luminex. Data in FIG. 10 show IFNγ (A) and TNFα (B) (pg/ml) secreted in the supernatants of CD8+ T cells stimulated with compounds CBP/EP300(3) and CBP/EP300(4), using DMSO as control.
3 days after CD8+ T cell stimulation mRNA was extracted using mRNA Catcher™ PLUS Purification Kit (Invitrogen; K1570-02). Gene expression of Lag3, CTLA4 and TIM3, genes encoding inhibitory receptors on the surface of CD8+ T cells and under the transcriptional control of CBP/p300, was analyzed by q-RT-PCR. Foxp3 expression and Granzyme B (GZMB) expression, a gene encoding effector function of CD8+ T cells, were also analyzed by q-RT-PCR. Beta-2-microglobulin (B2M) was used as house-keeping gene.

iTreg cells [3] = assay: Foxp3 protein expression in iTreg cells by flow cytometry (FIG. 8); conditions: 4 days after stimulation
Protocol: as §1
Cells from iTreg cultures were first stained with CD4 APC-CY7 and CD25 Pacific blue (both from BD pharmigen, cat#557811 and 560355, respectively); this was followed by fixation/permeabilization step and staining for intracellular Foxp3 FITC using human Foxp3 staining kit (eBioscience; cat#77-5774-40) according to the manufacturer protocol. FOXP3 expression by FACS was typically measured 4 d post-activation.

CD8+ T cells [4] = assay: IFNγ and TNFα in supernatants of stimulated CD8+ T cells by Luminex; conditions: supernatants 3 days after stimulation
Protocol: as §2

| SMILES | Foxp3 expression, fold change over unstimulated naïve T cells (iTreg cells [1]) | expression of LAG3, TIM3 and CTLA4 (CD8+ T cells [2]) | GZMB expression (effector function of CD8+ T cells) (CD8+ T cells [2]) | Foxp3 protein expression (iTreg cells [3]) | cytokine production (IFNγ, TNFα) by CD8+ T cells (CD8+ T cells [4]) |
| --- | --- | --- | --- | --- | --- |
| C[C@H]1Nc2c(cccc2C(=O)NCCCN2CCOc3ccccc32)NC1=O [CBP/EP300(3)] | decrease Foxp3 expression in iTreg cells in a dose dependent manner | dose-dependent reduction in the expression of LAG3, TIM3 and CTLA4 | did not affect effector function of CD8+ T cells | decrease Foxp3 protein expression in iTreg cells | minimally affect |
| COc1ccc2c(c1)N(CCCNC(=O)c1cccc3c1N[C@H](C)C(=O)N3)CCC2 [CBP/EP300(4)] | decrease Foxp3 expression in iTreg cells in a dose dependent manner | dose-dependent reduction in the expression of LAG3, TIM3 and CTLA4 | did not affect effector function of CD8+ T cells | decrease Foxp3 protein expression in iTreg cells | minimally affect |
